According to patent US20070105960A1, “Treatment of learning disabilities and motor skills disorder with norepinephrine reuptake inhibitors” (ELI LILLY AND COMPANY, priority 2003, published 2007):
“Also recorded” adds a separate entry of the source.

What was measured:
[1] = tested on: rats; test: 8-arm radial maze delayed non-match to sample task; format: in vivo, rat; details: FIG. 1
Method: (§1) The effects of atomoxetine on learning and memory in rats are evaluated in two different animal models. In an 8-arm radial maze delayed non-match to sample (DNMTS) task, well-trained rats recall where they received rewards during an information phase in order to obtain the remaining rewards during a retention phase conducted after a delay of several hours. Performance in this task is influenced by the administration of putative amnesics and cognitive enhancers (Staubli U, Rogers G, Lynch G (1994) Facilitation of glutamate receptors enhances memory. Proc Natl Acad Sci USA 91: 777-781; Pilcher J J, Sessions G R, McBride S A (1997) Scopolamine impairs spatial working memory in the radial maze: an analysis by error type and arm choice. Pharmacol Biochem Behav 58: 449-459; Pussinen R, Sirvio J (1999) Effects of D-cycloserine, a positive modulator of N-methyl-D-aspartate receptors, and ST 587, a putative alpha-1 adrenergic agonist, individually and in combination, on the non-delayed and delayed foraging behaviour of rats assessed in the radial arm maze. J Psychopharinacol 13:171-179; Wolff M. C., Leander, J. David (2003) A comparison of the effects of antipsychotics on a delayed radial maze task in the rat. Psychopharmacolology 168:410-416). […]

[2] = tested on: rats; test: Object recognition test; format: in vivo, rat; details: three hour delay, 60 minutes pre-treatment, FIG. 2
Method: as §1, with “maze.” for “maze. J Psychopharinacol 13:171-179; Wolff M. C., Leander, J. David (2003) A comparison of the effects of antipsychotics on a delayed radial maze task in the rat. Psychopharmacolology 168:410-416).”
During the testing phase of the experiment, rats are administered appropriate vehicle or drug (N=9/dose) and placed back in their home cage for the pre-treatment period (60 minutes). […] The time spent sniffing (nose <2.5 cm from the object), gnawing, or touching the objects with the front paws is recorded. […]

CNCC[C@@H](Oc1ccccc1C)c1ccccc1 [atomoxetine, (R)-(−)-N-methyl-3-(2-methyl-phenoxy)-3-phenylpropylamine]
errors in the 8 arm radial maze retention paradigm [1]: reduction of errors | learning and memory performance in the 8 arm radial maze ([1]; oral, 7 hour delay): improves learning and memory performance | object recognition [2]: improves object recognition; also recorded: improvement of object recognition
